{"source": "ChEMBL document CHEMBL4842357", "about": "“Discovery of Novel Apigenin-Piperazine Hybrids as Potent and Selective Poly (ADP-Ribose) Polymerase-1 (PARP-1) Inhibitors for the Treatment of Cancer” (J Med Chem, 2021)", "key": {"[1]": {"assay": "Half life in Sprague-Dawley rat at 5 mg/kg, iv", "format": "ADME, organism-based", "settings": "in vivo; call rule not given here"}, "[2]": {"assay": "Cmax in Sprague-Dawley rat at 5 mg/kg, iv", "format": "ADME, organism-based", "parameters": "route intravenous, dose 5 mg/kg", "settings": "in vivo"}, "[3]": {"assay": "Subacute toxicity in ICR mouse assessed as clinical abnormalities at 1000 mg/kg, po administered for 14 days", "format": "organism-based", "settings": "in vivo, 336 h, time 14 day"}, "[4]": {"assay": "Toxicity in BALB/c mouse xenografted with human SK-OV-3 cells assessed as change in body weight at 25 to 50 mg/kg, po administered once daily measured for 28 days", "format": "organism-based", "settings": "in vivo, 672 h, dose 25-50 mg/kg, time 28 day"}, "[5]": {"assay": "AUC(0 to infinity) in Sprague-Dawley rat at 5 mg/kg, iv", "format": "ADME, organism-based", "parameters": "route intravenous, time infinity, dose 5 mg/kg", "settings": "in vivo"}, "[6]": {"assay": "Drug distribution in tumor of mouse xenografted with human SK-OV-3 cells at 100 mg/kg, po after 1 hr by LC-MS analysis", "format": "ADME, organism-based, Neoplasm", "settings": "in vivo"}, "[7]": {"assay": "MRT in Sprague-Dawley rat at 50 mg/kg, po", "format": "ADME, organism-based", "settings": "in vivo"}, "[8]": {"assay": "Subacute toxicity in ICR mouse assessed as death at 1000 mg/kg, po administered for 14 days", "format": "organism-based", "settings": "in vivo, 336 h, time 14 day"}, "[9]": {"assay": "Tmax in Sprague-Dawley rat at 5 mg/kg, iv", "format": "ADME, organism-based", "settings": "in vivo"}, "[10]": {"assay": "Toxicity in ICR mouse assessed as effect on main visceral organs at 1000 mg/kg, ig administered for 14 days by H and E analysis", "format": "organism-based", "settings": "in vivo, po, 336 h, time 14 day"}, "[11]": {"assay": "Acute toxicity in ICR mouse assessed as abnormalities at 200 to 1000 mg/kg, po administered for 14 days", "format": "organism-based", "settings": "in vivo, 336 h, dose 200-1000 mg/kg, time 14 day"}, "[12]": {"assay": "MRT in Sprague-Dawley rat at 5 mg/kg, iv", "format": "ADME, organism-based", "settings": "in vivo"}, "[13]": {"assay": "Tmax in Sprague-Dawley rat at 50 mg/kg, po", "format": "ADME, organism-based", "settings": "in vivo"}, "[14]": {"assay": "Drug distribution in spleen of mouse xenografted with human SK-OV-3 cells at 100 mg/kg, po after 9 hrs by LC-MS analysis", "format": "ADME, organism-based", "settings": "in vivo"}, "[15]": {"assay": "Subacute toxicity in ICR mouse assessed as weight abnormalities at 1000 mg/kg, po administered for 14 days", "format": "organism-based", "settings": "in vivo, 336 h, time 14 day"}, "[16]": {"assay": "Oral bioavailability in Sprague-Dawley rat at 50 mg/kg", "format": "ADME, organism-based", "settings": "in vivo"}, "[17]": {"assay": "Drug distribution in liver of mouse xenografted with human SK-OV-3 cells at 100 mg/kg, po after 9 hrs by LC-MS analysis", "format": "ADME, organism-based", "settings": "in vivo"}, "[18]": {"assay": "Toxicity in BALB/c nude mouse xenografted with human A549 cells assessed as change in body weight at 25 to 50 mg/kg, po administered once daily measured for 28 days in presence of CBP", "format": "organism-based", "settings": "in vivo, 672 h, dose 25-50 mg/kg, time 28 day"}, "[19]": {"assay": "Acute toxicity in ICR mouse assessed as mortality at 200 to 1000 mg/kg, po administered for 14 days", "format": "organism-based", "settings": "in vivo, 336 h, dose 200-1000 mg/kg, time 14 day"}, "[20]": {"assay": "Half life in Sprague-Dawley rat at 50 mg/kg, po", "format": "ADME, organism-based", "settings": "in vivo"}, "SK-OV-3": {"test_system": "SK-OV-3", "assay": "Antitumor activity against human SK-OV-3 cells xenografted in BALB/c nude mouse assessed as relative tumor volume at 50 mg/kg, po administered once daily for 12 days", "format": "functional", "settings": "time 12 day"}, "[21]": {"assay": "Total plasma clearance in Sprague-Dawley rat at 5 mg/kg, iv", "format": "ADME, organism-based"}, "[22]": {"assay": "Cmax in Sprague-Dawley rat at 50 mg/kg, po", "format": "ADME, organism-based", "parameters": "route oral, dose 50 mg/kg", "settings": "in vivo"}, "[23]": {"assay": "AUC(0 to infinity) in Sprague-Dawley rat at 50 mg/kg, po", "format": "ADME, organism-based", "parameters": "time infinity, route oral, dose 50 mg/kg", "settings": "in vivo"}, "[24]": {"assay": "Volume of distribution at steady state in Sprague-Dawley rat at 5 mg/kg, iv", "format": "ADME, organism-based", "settings": "in vivo, read-out: Vdss"}, "Homo sapiens [25]": {"species_on_record": "Homo sapiens", "assay": "Selectivity index, ratio of IC50 for inhibition of recombinant human full-length PARP-2 to IC50 for inhibition of recombinant human full-length PARP-1"}, "[26]": {"biological_target": "T1, Poly [ADP-ribose] polymerase 2 (Homo sapiens, UniProt Q9UGN5)", "T1 sequence (Q9UGN5 whole entry)": "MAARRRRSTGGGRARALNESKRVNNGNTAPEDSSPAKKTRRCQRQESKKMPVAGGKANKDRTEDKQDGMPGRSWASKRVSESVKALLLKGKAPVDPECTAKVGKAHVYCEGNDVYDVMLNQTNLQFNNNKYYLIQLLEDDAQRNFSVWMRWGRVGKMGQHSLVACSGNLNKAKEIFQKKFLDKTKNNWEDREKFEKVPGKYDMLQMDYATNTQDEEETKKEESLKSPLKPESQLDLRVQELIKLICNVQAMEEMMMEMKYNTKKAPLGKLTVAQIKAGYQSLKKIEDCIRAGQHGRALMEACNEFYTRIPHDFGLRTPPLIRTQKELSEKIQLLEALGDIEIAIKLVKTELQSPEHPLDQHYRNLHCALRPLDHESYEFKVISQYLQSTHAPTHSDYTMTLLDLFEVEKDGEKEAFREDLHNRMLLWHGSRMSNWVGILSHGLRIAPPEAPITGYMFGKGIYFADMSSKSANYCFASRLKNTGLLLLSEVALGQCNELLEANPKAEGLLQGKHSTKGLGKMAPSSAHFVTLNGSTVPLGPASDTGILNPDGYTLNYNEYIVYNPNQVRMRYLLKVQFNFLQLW", "assay": "Inhibition of recombinant human full-length PARP-2 using biotinylated substrate"}, "[27]": {"biological_target": "T2, Poly [ADP-ribose] polymerase 1 (Homo sapiens, UniProt P09874)", "T2 sequence (P09874 whole entry)": "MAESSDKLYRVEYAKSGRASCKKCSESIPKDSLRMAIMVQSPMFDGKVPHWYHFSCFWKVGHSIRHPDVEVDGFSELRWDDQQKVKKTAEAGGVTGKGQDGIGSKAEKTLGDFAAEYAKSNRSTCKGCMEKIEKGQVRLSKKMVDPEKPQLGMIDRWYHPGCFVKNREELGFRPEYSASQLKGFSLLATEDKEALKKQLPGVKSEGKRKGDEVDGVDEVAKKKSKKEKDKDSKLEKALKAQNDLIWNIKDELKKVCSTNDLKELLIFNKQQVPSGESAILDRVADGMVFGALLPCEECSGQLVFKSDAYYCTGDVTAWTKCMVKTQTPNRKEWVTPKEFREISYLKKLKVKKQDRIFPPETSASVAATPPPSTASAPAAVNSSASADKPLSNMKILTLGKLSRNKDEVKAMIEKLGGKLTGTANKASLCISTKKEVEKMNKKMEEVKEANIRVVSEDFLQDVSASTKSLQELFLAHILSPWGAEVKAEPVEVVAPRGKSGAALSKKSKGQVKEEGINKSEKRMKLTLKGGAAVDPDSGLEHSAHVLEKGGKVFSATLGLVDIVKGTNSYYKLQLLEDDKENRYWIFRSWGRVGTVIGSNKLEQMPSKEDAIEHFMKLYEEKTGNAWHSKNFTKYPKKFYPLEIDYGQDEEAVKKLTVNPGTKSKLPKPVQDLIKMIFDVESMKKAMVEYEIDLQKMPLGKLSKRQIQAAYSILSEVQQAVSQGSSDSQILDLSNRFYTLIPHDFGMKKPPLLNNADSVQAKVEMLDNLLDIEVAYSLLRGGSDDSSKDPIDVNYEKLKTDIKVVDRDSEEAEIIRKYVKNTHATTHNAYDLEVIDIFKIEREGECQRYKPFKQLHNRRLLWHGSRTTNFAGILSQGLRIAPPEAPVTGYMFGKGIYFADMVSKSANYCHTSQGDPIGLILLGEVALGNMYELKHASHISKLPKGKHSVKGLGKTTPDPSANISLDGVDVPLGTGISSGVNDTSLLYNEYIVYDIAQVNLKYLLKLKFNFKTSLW", "assay": "Inhibition of recombinant human full-length PARP-1 using biotinylated substrate"}, "[28]": {"biological_target": "T1, Poly [ADP-ribose] polymerase 2", "assay": "Inhibition of PARP-2 (unknown origin)"}, "Homo sapiens [29]": {"species_on_record": "Homo sapiens", "assay": "Selectivity index, ratio of IC50 for PARP-2 (unknown origin) to IC50 for PARP-1 (unknown origin)"}, "[30]": {"biological_target": "T2, Poly [ADP-ribose] polymerase 1", "assay": "Inhibition of PARP-1 (unknown origin)"}}, "note": "pIC50: −log10 of the molar value.", "data": [{"smiles": "Cl.Cl.O=c1cc(-c2ccc(O)cc2)oc2c(CN3CCN(Cc4cccs4)CC3)c(O)cc(O)c12", "values": [{"measurement": "half-life", "setting": "[1]", "result": 3.19, "unit": "h"}, {"measurement": "Cmax", "setting": "[2]", "result": 2880, "unit": "ng/mL"}, {"measurement": "Activity", "setting": "[3]", "result": "Non-Toxic"}, {"measurement": "Activity", "setting": "[4]", "result": "Non-Toxic"}, {"measurement": "AUC(0-inf)", "setting": "[5]", "result": 1370, "unit": "ng·h/mL"}, {"measurement": "Drug uptake", "setting": "[6]", "result": "Active"}, {"measurement": "MRT", "setting": "[7]", "result": 13, "unit": "h"}, {"measurement": "Activity", "setting": "[8]", "result": "Non-Toxic"}, {"measurement": "Tmax", "setting": "[9]", "result": 1.8, "unit": "min"}, {"measurement": "Activity", "setting": "[10]", "result": "Non-Toxic"}, {"measurement": "Activity", "setting": "[11]", "result": "Non-Toxic"}, {"measurement": "MRT", "setting": "[12]", "result": 3.14, "unit": "h"}, {"measurement": "Tmax", "setting": "[13]", "result": 1.5, "unit": "h"}, {"measurement": "Drug uptake", "setting": "[14]", "result": "Not Active"}, {"measurement": "Activity", "setting": "[15]", "result": "Non-Toxic"}, {"measurement": "bioavailability", "setting": "[16]", "result": 26.5, "unit": "%"}, {"measurement": "Drug uptake", "setting": "[17]", "result": "Active"}, {"measurement": "Activity", "setting": "[18]", "result": "Non-Toxic"}, {"measurement": "Activity", "setting": "[19]", "result": "Non-Toxic"}, {"measurement": "half-life", "setting": "[20]", "result": 10.7, "unit": "h"}, {"measurement": "Activity", "setting": "SK-OV-3", "result": 0.74}, {"measurement": "clearance", "setting": "[21]", "result": 60.5, "unit": "mL/min/kg"}, {"measurement": "Cmax", "setting": "[22]", "result": 470, "unit": "ng/mL"}, {"measurement": "AUC(0-inf)", "setting": "[23]", "result": 3630, "unit": "ng·h/mL"}, {"measurement": "Vd", "setting": "[24]", "result": 11.4, "unit": "L/kg"}]}, {"smiles": "O=c1cc(-c2ccc(O)c(-c3c(O)cc(O)c4c(=O)cc(-c5ccc(O)cc5)oc34)c2)oc2cc(O)cc(O)c12", "note": "[AMENTOFLAVONE]", "values": [{"measurement": "Ratio IC50", "setting": "Homo sapiens [25]", "result": 55.2}, {"measurement": "pIC50", "setting": "[26]", "result": 4.99}, {"measurement": "pIC50", "setting": "[27]", "result": 6.73}, {"measurement": "pIC50", "setting": "[28]", "result": 4.99}, {"measurement": "Ratio IC50", "setting": "Homo sapiens [29]", "result": 52}, {"measurement": "pIC50", "setting": "[30]", "result": 9.70}]}]}
